EC50 and IC50 data for three compounds are collected here from paper PMC5610306, “Identification of a specific agonist of human TAS2R14 from Radix Bupleuri through virtual screening, functional evaluation and binding studies” (Scientific Reports, 2017).

In experiment [1] the target is T1, TAS2R14 (Homo sapiens, UniProt Q9NYV8).
T1 construct: full-length cDNA, stably expressed in HEK293 cells with chimeric G16gust44 (G alpha 16 fused with 44 amino acids of gustducin)
T1 sequence (Q9NYV8 1-317): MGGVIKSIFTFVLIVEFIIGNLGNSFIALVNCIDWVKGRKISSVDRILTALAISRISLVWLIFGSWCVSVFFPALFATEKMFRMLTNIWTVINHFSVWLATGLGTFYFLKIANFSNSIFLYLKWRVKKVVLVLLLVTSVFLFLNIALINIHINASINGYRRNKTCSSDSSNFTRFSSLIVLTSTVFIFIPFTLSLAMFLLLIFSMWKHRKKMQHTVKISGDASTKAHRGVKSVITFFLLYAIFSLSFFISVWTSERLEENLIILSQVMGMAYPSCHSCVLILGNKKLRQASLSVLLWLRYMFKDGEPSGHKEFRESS
Nature of the experiment: Fluo-4 calcium mobilization, HEK293-TAS2R14-G16gust44 cells. The experiment is classed as cell-based. Background: A change in cytosolic calcium serves as a functional read-out for many receptors and channels.

For experiment [2], the target named is T1, TAS2R14. Nature of the experiment: Fluo-4 calcium mobilization, antagonist mode, HEK293-TAS2R14-G16gust44 cells. The experiment is classed as cell-based. Particulars: in the presence of 10.0 μM aristolochic acid A as agonist, 37 °C, 2.5 mM probenecid in loading buffer.

Where two headings read alike, the source gives them in different places.

On to `C[C@H]1O[C@@H](O[C@H]2CC[C@@]3(C)[C@@H](CC[C@]4(C)[C@@H]3C=CC3=C5CC(C)(C)CC[C@]5(CO)C(O)C[C@]34C)[C@]2(C)CO)[C@H](O)[C@@H](O[C@@H]2O[C@H](CO)[C@@H](O)[C@H](O)[C@H]2O)[C@H]1O` (stereo partly drawn) [SSb, Saikosaponin b], for which the EC50 (usually the concentration at which the effect is half-maximal) in experiment [1] (read-out: EC50) turned out to be 4.9 µM. As for `COc1cccc2c1cc([N+](=O)[O-])c1c(C(=O)O)cc3c(c12)OCO3` [AAA, aristolochic acid A], the EC50 in experiment [1] is 2 µM. Regarding sulfamoyl-benzoic acid [SBA], the concentration for half-maximal inhibition (IC50) (as a rule, the concentration needed to halve the response being measured) in experiment [2] was determined as 18.5 µM.
